Assay results published in patent US8951580B2, “Methods for improving the safety of treating pediatric patients who are candidates for inhaled nitric oxide treatment” (priority 2009, dated 2015).

How the values were obtained:
[1] = system: pulmonary vasculature of children with pulmonary hypertension; experiment: INOT22 study: acute pulmonary vasodilator testing during cardiac catheterization; details: iNO 80 ppm; for SVRI Change From Baseline, Mean / SVRI Change From Baseline, Median / SVRI Change From Baseline, Minimum / SVRI Change From Baseline, maximum / Ratio PVRI/SVRI Change from Baseline, Maximum / Ratio PVRI/SVRI Change from Baseline, Mean / Ratio PVRI/SVRI Change from Baseline, Median / Ratio PVRI/SVRI Change from Baseline, Minimum / Ratio PVRI/SVRI Percent Change from Baseline, Maximum / Ratio PVRI/SVRI Percent Change from Baseline, Mean / Ratio PVRI/SVRI Percent Change from Baseline, Median / Ratio PVRI/SVRI Percent Change from Baseline, Minimum / Ratio PVRI/SVRI Post Treatment, Maximum / Ratio PVRI/SVRI Post Treatment, Mean / Ratio PVRI/SVRI Post Treatment, Median / Ratio PVRI/SVRI Post Treatment, Minimum / SVRI Post-treatment, Mean / SVRI Post-treatment, Median / SVRI Post-treatment, Minimum / SVRI Post-treatment, maximum: ITT, each treatment 10 minutes; for SVRI Change From Baseline, Mean / SVRI Change From Baseline, Median / SVRI Change From Baseline, Minimum / SVRI Change From Baseline, maximum: baseline room air; for tolerability: INOT22 diagnostic study, children with pulmonary hypertension
Experimental: The INOT22 study, entitled “Comparison of supplemental oxygen and nitric oxide for inhalation plus oxygen in the evaluation of the reactivity of the pulmonary vasculature during acute pulmonary vasodilatory testing” was conducted both to assess the safety and effectiveness of INOmax® as a diagnostic agent in patients undergoing assessment of pulmonary hypertension (primary endpoint), and to confirm the hypothesis that iNO is selective for the pulmonary vasculature (secondary endpoint).
In particular, the INOT22 protocol studied consecutive children undergoing cardiac catheterization that were prospectively enrolled at 16 centers in the US and Europe. Inclusion criteria: 4 weeks to 18 years of age, pulmonary hypertension diagnosis, i.e. either idiopathic pulmonary hypertension (IPAH) or related to congenital heart disease (CHD) (repaired or unrepaired) or cardiomyopathy, with pulmonary vascular resistance index (PVRI)>3 u−m^2. Later amendments, as discussed herein, added an additional inclusionary criterion of a PCWP less than 20 mm Hg. Patients were studied under general anaesthesia, or with conscious sedation, according to the practice of the investigator. Exclusion criteria: focal infiltrates on chest X-ray, history of intrinsic lung disease, and/or currently taking PDE-5 inhibitors, prostacyclin analogues or sodium nitroprusside. The study involved supplemental O2 and NO for inhalation plus O2 in the evaluation of the reactivity of the pulmonary vasculature during acute pulmonary vasodilator testing. Consecutive children undergoing cardiac catheterization were prospectively enrolled at 16 centers in the US and Europe. […] A specific secondary endpoint was evaluated in study INOT22 to provide a more definitive evaluation.
The primary objective was to compare the response frequency with iNO and O2 vs. O2 alone; in addition, all subjects were studied with iNO alone. Patients were studied during five periods: Baseline 1, Treatment Period 1, Treatment Period 2, Baseline 2 and Treatment Period 3. All patients received all three treatments; treatment sequence was randomized by center in blocks of 4; in Period 1, patients received either NO alone or O2 alone, and the alternate treatment in Period 3. All patients received the iNO and O2 combination treatment in Period 2. Once the sequence was assigned, treatment was unblinded. Each treatment was given for 10 minutes prior to obtaining hemodynamic measurements, and the Baseline Period 2 was at least 10 minutes.

[2] = system: term and near-term neonates with pulmonary hypertension and hypoxic respiratory failure; details: Inhaled NO n=97; number of patients (%); cited from earlier work
[3] = system: neonates with hypoxic respiratory failure; details: n=114, number (%), cited from earlier work

Molecule	SVRI Change From Baseline, Mean [1] [WU · m^2]	SVRI Change From Baseline, Median [1] [WU · m^2]	SVRI Change From Baseline, Minimum [1] [WU · m^2]	SVRI Change From Baseline, maximum [1] [WU · m^2]	Ratio PVRI/SVRI Change from Baseline, Maximum [1]	Ratio PVRI/SVRI Change from Baseline, Mean [1]	Ratio PVRI/SVRI Change from Baseline, Median [1]	Ratio PVRI/SVRI Change from Baseline, Minimum [1]	Ratio PVRI/SVRI Percent Change from Baseline, Maximum [1] [%]	Ratio PVRI/SVRI Percent Change from Baseline, Mean [1] [%]	Ratio PVRI/SVRI Percent Change from Baseline, Median [1] [%]	Ratio PVRI/SVRI Percent Change from Baseline, Minimum [1] [%]	Ratio PVRI/SVRI Post Treatment, Maximum [1]	Ratio PVRI/SVRI Post Treatment, Mean [1]	Ratio PVRI/SVRI Post Treatment, Median [1]	Ratio PVRI/SVRI Post Treatment, Minimum [1]	SVRI Post-treatment, Mean [1] [WU · m^2]	SVRI Post-treatment, Median [1] [WU · m^2]	SVRI Post-treatment, Minimum [1] [WU · m^2]	SVRI Post-treatment, maximum [1] [WU · m^2]	further results
O=O [O2, oxygen]	1.3	1.0	−18.1	17.7	2.0	−0.1	−0.1	−1.6	93.3	−19.3	−21.3	−122.7	1.4	0.4	0.4	0.0	18.9	17.1	3.9	43.6	–
nitric oxide [NO]	−0.2	0.2	−12.5	12.7	1.6	−0.1	0.0	−4.4	294.1	−6.2	−13.8	−256.1	2.2	0.5	0.3	−1.2	17.8	15.4	3.3	50.7	Adverse Reaction: Atelectasis [2]: 7 (6.5%); Adverse Reaction: Bilirubinemia [2]: 7 (6.5%); Adverse Reaction: Hypokalemia [2]: 9 (8.3%); Adverse Reaction: Hypotension [2]: 6 (5.6%); Adverse Reaction: Thrombocytopenia [2]: 16 (14.8%); Death or ECMO ([3]; 100% O2 with 20 ppm NO for up to 14 days, primary end point): 52 (46%); Death ([3]; 100% O2 with 20 ppm NO): 16 (14%); ECMO ([3]; 100% O2 with 20 ppm NO): 44 (39%); tolerability [1]: well-tolerated; tolerability ([1]; listed as iNO): well-tolerated in most patients
